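These data come from cells grown in 96-well plates and exposed to compound for 48 hours at five concentrations. TGI: total growth inhibition.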
Assays:
Test in all cases: NCI tumour cell line growth inhibition, 48 h
786-0 renal = tested on: 786-0 renal
A498 renal = tested on: A498 renal
A549 NSCLC = tested on: A549 NSCLC
BT-549 breast = tested on: BT-549 breast
CAKI-1 renal = tested on: CAKI-1 renal
CCRF-CEM leukemia = tested on: CCRF-CEM leukemia
COLO 205 colon = tested on: COLO 205 colon
DU-145 prostate = tested on: DU-145 prostate
EKVX NSCLC = tested on: EKVX NSCLC
HCT-116 colon = tested on: HCT-116 colon
HCT-15 colon = tested on: HCT-15 colon
HOP-62 NSCLC = tested on: HOP-62 NSCLC
HOP-92 NSCLC = tested on: HOP-92 NSCLC
HS 578T breast = tested on: HS 578T breast
HT29 colon = tested on: HT29 colon
IGROV1 ovarian = tested on: IGROV1 ovarian
K-562 leukemia = tested on: K-562 leukemia
KM12 colon = tested on: KM12 colon
LOX IMVI melanoma = tested on: LOX IMVI melanoma
M14 melanoma = tested on: M14 melanoma
MALME-3M melanoma = tested on: MALME-3M melanoma
MDA-MB-231 breast = tested on: MDA-MB-231 breast
MDA-MB-435 = tested on: MDA-MB-435
MDA-N = tested on: MDA-N
MOLT-4 leukemia = tested on: MOLT-4 leukemia
NCI-H23 lung = tested on: NCI-H23 lung
NCI-H522 lung = tested on: NCI-H522 lung
NCI/ADR-RES ovarian = tested on: NCI/ADR-RES ovarian
OVCAR-4 ovarian = tested on: OVCAR-4 ovarian
OVCAR-5 ovarian = tested on: OVCAR-5 ovarian
OVCAR-8 ovarian = tested on: OVCAR-8 ovarian
PC-3 prostate = tested on: PC-3 prostate
RPMI-8226 leukemia = tested on: RPMI-8226 leukemia
RXF 393 renal = tested on: RXF 393 renal
SF-268 CNS = tested on: SF-268 CNS
SF-295 CNS = tested on: SF-295 CNS
SK-MEL-2 melanoma = tested on: SK-MEL-2 melanoma
SK-MEL-28 melanoma = tested on: SK-MEL-28 melanoma
SK-MEL-5 melanoma = tested on: SK-MEL-5 melanoma
SK-OV-3 ovarian = tested on: SK-OV-3 ovarian
SN12C renal = tested on: SN12C renal
SNB-19 CNS = tested on: SNB-19 CNS
SNB-75 CNS = tested on: SNB-75 CNS
SW-620 colon = tested on: SW-620 colon
T-47D breast = tested on: T-47D breast
TK-10 renal = tested on: TK-10 renal
U251 CNS = tested on: U251 CNS
UACC-257 melanoma = tested on: UACC-257 melanoma
UACC-62 melanoma = tested on: UACC-62 melanoma
UO-31 renal = tested on: UO-31 renal
ACHN renal = tested on: ACHN renal
HCC-2998 colon = tested on: HCC-2998 colon
HL-60(TB) leukemia = tested on: HL-60(TB) leukemia
MCF7 breast = tested on: MCF7 breast
NCI-H226 lung = tested on: NCI-H226 lung
NCI-H460 lung = tested on: NCI-H460 lung
OVCAR-3 ovarian = tested on: OVCAR-3 ovarian
SF-539 CNS = tested on: SF-539 CNS
SR leukemia = tested on: SR leukemia

Compound: O=[N+]([O-])c1cccc(N=Nc2c(O)ccc3ccccc23)c1
- TGI (786-0 renal): > 100 µM
- TGI (A498 renal): > 100 µM
- TGI (A549 NSCLC): > 100 µM
- TGI (BT-549 breast): > 100 µM
- TGI (CAKI-1 renal): > 100 µM
- TGI (CCRF-CEM leukemia): 56.7 µM
- TGI (COLO 205 colon): > 100 µM
- TGI (DU-145 prostate): > 100 µM
- TGI (EKVX NSCLC): > 100 µM
- TGI (HCT-116 colon): > 100 µM
- TGI (HCT-15 colon): > 100 µM
- TGI (HOP-62 NSCLC): > 100 µM
- TGI (HOP-92 NSCLC): > 100 µM
- TGI (HS 578T breast): > 100 µM
- TGI (HT29 colon): > 100 µM
- TGI (IGROV1 ovarian): > 100 µM
- TGI (K-562 leukemia): > 100 µM
- TGI (KM12 colon): > 100 µM
- TGI (LOX IMVI melanoma): > 100 µM
- TGI (M14 melanoma): > 100 µM
- TGI (MALME-3M melanoma): > 100 µM
- TGI (MDA-MB-231 breast): > 100 µM
- TGI (MDA-MB-435): > 100 µM
- TGI (MDA-N): > 100 µM
- TGI (MOLT-4 leukemia): > 100 µM
- TGI (NCI-H23 lung): > 100 µM
- TGI (NCI-H522 lung): > 100 µM
- TGI (NCI/ADR-RES ovarian): > 100 µM
- TGI (OVCAR-4 ovarian): > 100 µM
- TGI (OVCAR-5 ovarian): > 100 µM
- TGI (OVCAR-8 ovarian): > 100 µM
- TGI (PC-3 prostate): > 100 µM
- TGI (RPMI-8226 leukemia): > 100 µM
- TGI (RXF 393 renal): > 100 µM
- TGI (SF-268 CNS): > 100 µM
- TGI (SF-295 CNS): > 100 µM
- TGI (SK-MEL-2 melanoma): > 100 µM
- TGI (SK-MEL-28 melanoma): > 100 µM
- TGI (SK-MEL-5 melanoma): > 100 µM
- TGI (SK-OV-3 ovarian): > 100 µM
- TGI (SN12C renal): > 100 µM
- TGI (SNB-19 CNS): 75.5 µM
- TGI (SNB-75 CNS): > 100 µM
- TGI (SW-620 colon): > 100 µM
- TGI (T-47D breast): > 100 µM
- TGI (TK-10 renal): > 100 µM
- TGI (U251 CNS): > 100 µM
- TGI (UACC-257 melanoma): > 100 µM
- TGI (UACC-62 melanoma): > 100 µM
- TGI (UO-31 renal): > 100 µM

Compound: O=[N+]([O-])C(=C/c1cccs1)/C(=C\c1cccs1)[N+](=O)[O-]
- TGI (A549 NSCLC): 9.59 µM
- TGI (ACHN renal): 2.68 µM
- TGI (BT-549 breast): 4.27 µM
- TGI (CAKI-1 renal): 1.41 µM
- TGI (CCRF-CEM leukemia): 0.276 µM
- TGI (COLO 205 colon): 2.93 µM
- TGI (DU-145 prostate): 3.53 µM
- TGI (EKVX NSCLC): > 32.4 µM
- TGI (HCC-2998 colon): 2.58 µM
- TGI (HCT-116 colon): 2.49 µM
- TGI (HCT-15 colon): 0.614 µM
- TGI (HL-60(TB) leukemia): 0.139 µM
- TGI (HOP-62 NSCLC): 5.39 µM
- TGI (HOP-92 NSCLC): 3.28 µM
- TGI (HS 578T breast): 50.7 µM
- TGI (HT29 colon): 6.13 µM
- TGI (K-562 leukemia): > 100 µM
- TGI (KM12 colon): 13.4 µM
- TGI (LOX IMVI melanoma): 0.688 µM
- TGI (M14 melanoma): 6.88 µM
- TGI (MALME-3M melanoma): 4.82 µM
- TGI (MCF7 breast): 7.72 µM
- TGI (MDA-MB-231 breast): 0.864 µM
- TGI (MDA-MB-435): 2.23 µM
- TGI (MDA-N): 2.65 µM
- TGI (MOLT-4 leukemia): 1.3 µM
- TGI (NCI-H226 lung): 9.84 µM
- TGI (NCI-H23 lung): 3.52 µM
- TGI (NCI-H460 lung): 5.31 µM
- TGI (NCI/ADR-RES ovarian): 5.4 µM
- TGI (OVCAR-3 ovarian): 21.7 µM
- TGI (OVCAR-4 ovarian): 7.41 µM
- TGI (OVCAR-5 ovarian): 7.21 µM
- TGI (OVCAR-8 ovarian): 8.06 µM
- TGI (RPMI-8226 leukemia): 1.14 µM
- TGI (RXF 393 renal): 0.486 µM
- TGI (SF-268 CNS): 10.4 µM
- TGI (SF-295 CNS): 4.92 µM
- TGI (SF-539 CNS): 0.417 µM
- TGI (SK-MEL-2 melanoma): 6.46 µM
- TGI (SK-MEL-28 melanoma): 2.32 µM
- TGI (SK-MEL-5 melanoma): 2.94 µM
- TGI (SK-OV-3 ovarian): 8.04 µM
- TGI (SNB-19 CNS): 5.16 µM
- TGI (SNB-75 CNS): > 95.2 µM
- TGI (SR leukemia): 0.987 µM
- TGI (SW-620 colon): 21.2 µM
- TGI (T-47D breast): 7.74 µM
- TGI (TK-10 renal): 7.76 µM
- TGI (UACC-257 melanoma): 3.46 µM
- TGI (UACC-62 melanoma): 2.53 µM

Compound: CN(C)c1ccc2nc(CC(O)(C(F)(F)F)C(F)(F)F)ccc2c1
- TGI (786-0 renal): > 10 µM
- TGI (A498 renal): > 10 µM
- TGI (A549 NSCLC): > 10 µM
- TGI (ACHN renal): > 10 µM
- TGI (BT-549 breast): > 10 µM
- TGI (CAKI-1 renal): > 10 µM
- TGI (CCRF-CEM leukemia): > 10 µM
- TGI (COLO 205 colon): > 10 µM
- TGI (DU-145 prostate): > 10 µM
- TGI (EKVX NSCLC): > 10 µM
- TGI (HCC-2998 colon): > 10 µM
- TGI (HCT-116 colon): > 10 µM
- TGI (HCT-15 colon): > 10 µM
- TGI (HOP-62 NSCLC): > 10 µM
- TGI (HOP-92 NSCLC): > 10 µM
- TGI (HS 578T breast): > 10 µM
- TGI (HT29 colon): > 10 µM
- TGI (IGROV1 ovarian): > 10 µM
- TGI (K-562 leukemia): > 10 µM
- TGI (KM12 colon): > 10 µM
- TGI (LOX IMVI melanoma): > 10 µM
- TGI (M14 melanoma): > 10 µM
- TGI (MALME-3M melanoma): > 10 µM
- TGI (MCF7 breast): > 10 µM
- TGI (MDA-MB-231 breast): > 10 µM
- TGI (MDA-MB-435): > 10 µM
- TGI (MDA-N): > 10 µM
- TGI (MOLT-4 leukemia): > 10 µM
- TGI (NCI-H226 lung): > 10 µM
- TGI (NCI-H23 lung): > 10 µM
- TGI (NCI-H460 lung): > 10 µM
- TGI (NCI-H522 lung): > 10 µM
- TGI (NCI/ADR-RES ovarian): > 10 µM
- TGI (OVCAR-3 ovarian): > 10 µM
- TGI (OVCAR-4 ovarian): > 10 µM
- TGI (OVCAR-5 ovarian): > 10 µM
- TGI (OVCAR-8 ovarian): > 10 µM
- TGI (PC-3 prostate): > 10 µM
- TGI (RPMI-8226 leukemia): > 10 µM
- TGI (RXF 393 renal): > 10 µM
- TGI (SF-268 CNS): > 10 µM
- TGI (SF-295 CNS): > 10 µM
- TGI (SF-539 CNS): > 10 µM
- TGI (SK-MEL-2 melanoma): > 10 µM
- TGI (SK-MEL-28 melanoma): > 10 µM
- TGI (SK-MEL-5 melanoma): > 10 µM
- TGI (SK-OV-3 ovarian): > 10 µM
- TGI (SN12C renal): > 10 µM
- TGI (SNB-19 CNS): > 10 µM
- TGI (SNB-75 CNS): > 10 µM
- TGI (SW-620 colon): > 10 µM
- TGI (T-47D breast): > 10 µM
- TGI (TK-10 renal): > 10 µM
- TGI (U251 CNS): > 10 µM
- TGI (UACC-257 melanoma): > 10 µM
- TGI (UACC-62 melanoma): > 10 µM
- TGI (UO-31 renal): > 10 µM
